Columns and labels:
[1] = molecular target: T1, mitochondrial complex I (NADH: ubiquinone oxidoreductase) (Mus musculus, UniProt P03888+Q91WD5+Q9DC70); experiment: NADH: ubiquinone oxidoreductase activity; assay type: biochemical
[2] = molecular target: mitochondrial complex II (succinate: ubiquinone oxidoreductase) (Mus musculus, UniProt Q8K2B3+Q9CQA3+Q9CXV1+Q9CZB0); experiment: succinate: ubiquinone oxidoreductase activity, DCPIP reduction; assay type: biochemical
[3] = molecular target: T1, mitochondrial complex I (NADH: ubiquinone oxidoreductase); experiment: NADH: ubiquinone oxidoreductase activity; assay type: cell-based; conditions: read-out: % inhibition at 20 μM

Sequence of mitochondrial complex II (succinate: ubiquinone oxidoreductase) (Q8K2B3 43-664): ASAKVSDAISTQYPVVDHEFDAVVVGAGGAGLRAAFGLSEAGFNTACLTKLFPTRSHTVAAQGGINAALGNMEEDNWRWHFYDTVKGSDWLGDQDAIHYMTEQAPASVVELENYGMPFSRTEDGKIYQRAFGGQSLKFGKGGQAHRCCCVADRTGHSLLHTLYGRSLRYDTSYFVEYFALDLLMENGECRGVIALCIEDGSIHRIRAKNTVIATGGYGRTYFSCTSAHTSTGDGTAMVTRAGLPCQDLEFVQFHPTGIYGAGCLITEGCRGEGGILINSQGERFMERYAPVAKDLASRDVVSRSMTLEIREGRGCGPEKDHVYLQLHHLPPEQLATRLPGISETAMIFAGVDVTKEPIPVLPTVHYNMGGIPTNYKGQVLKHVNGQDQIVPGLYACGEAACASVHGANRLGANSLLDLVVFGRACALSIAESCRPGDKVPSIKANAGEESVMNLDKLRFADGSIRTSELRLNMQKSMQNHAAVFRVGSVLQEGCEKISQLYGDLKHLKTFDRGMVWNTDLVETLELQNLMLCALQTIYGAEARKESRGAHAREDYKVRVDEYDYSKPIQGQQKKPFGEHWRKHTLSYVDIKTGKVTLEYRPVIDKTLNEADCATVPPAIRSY
Sequence of mitochondrial complex II (succinate: ubiquinone oxidoreductase) (Q9CQA3 31-282): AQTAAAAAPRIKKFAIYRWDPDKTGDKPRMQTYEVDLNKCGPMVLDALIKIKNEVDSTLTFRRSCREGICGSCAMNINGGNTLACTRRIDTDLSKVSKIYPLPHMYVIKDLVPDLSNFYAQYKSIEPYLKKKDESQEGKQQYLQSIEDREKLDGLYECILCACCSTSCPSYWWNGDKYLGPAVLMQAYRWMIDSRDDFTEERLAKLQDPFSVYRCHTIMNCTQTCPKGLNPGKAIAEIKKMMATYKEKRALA
Sequence of mitochondrial complex II (succinate: ubiquinone oxidoreductase) (Q9CZB0 30-169): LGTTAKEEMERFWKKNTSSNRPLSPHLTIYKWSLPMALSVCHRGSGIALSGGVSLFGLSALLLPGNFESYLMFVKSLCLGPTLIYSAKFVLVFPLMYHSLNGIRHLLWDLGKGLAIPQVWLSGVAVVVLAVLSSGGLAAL
Sequence of mitochondrial complex II (succinate: ubiquinone oxidoreductase) (Q9CXV1 57-159): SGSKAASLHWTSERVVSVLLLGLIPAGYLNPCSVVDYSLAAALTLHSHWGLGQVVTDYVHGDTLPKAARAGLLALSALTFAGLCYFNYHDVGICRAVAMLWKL

O=C1Nc2ccc(Cl)cc2[C@@](C#CC2CC2)(C(F)(F)F)O1 [EFV, efavirenz]
IC50 [1]: ~30 µM

NN [HzN, hydrazine]
IC50 [2]: ~30 µM

C=C(C)[C@H]1Cc2c(ccc3c2O[C@@H]2COc4cc(OC)c(OC)cc4[C@@H]2C3=O)O1 [ROT, rotenone]
inhibition at 20 µM [3]: ~50%
